Literature values, collected in patent publication EP3697221B1, “AQUEOUS SUSPENSION CONCENTRATES BASED ON 2-[(2,4-DICHLOROPHENYL)-METHYL]-4,4'-DIMETHYL-3-ISOXAZOLIDINONE” (Bayer Aktiengesellschaft, priority 2017, dated 2019).

Conditions: water

| Structure (SMILES) | Wasserlöslichkeit |
| --- | --- |
| CC1(C)CON(Cc2ccccc2Cl)C1=O [Clomazone, 2-(2-chlorobenzyl)-4,4-dimethyl-1,2-oxazolidin-3-one] | 1000 ppm |
| CC1(C)CON(Cc2ccc(Cl)cc2Cl)C1=O [DCPMI, 2-[(2,4-Dichlorphenyl)-methyl]-4,4'-dimethyl-3-isoxazolidinone] | 39,5 ppm |
